Assay results taken from patent US7659299B2, “Compounds inhibiting the binding of sap for treating osteoarthritis” (Pentraxin Therapeutics Limited, priority 2003, dated 2010).

Experiments:
Parameters in all cases: 5 μl of radiolabelled SAP in TN; from tissue
SAP [1] = molecular target: T1, SAP (Homo sapiens, UniProt P02743); assay: Inhibition of binding of 125I radiolabelled SAP to Neisseria meningitidis immobilized in microtitre plates; settings: for inhibition at 0.2 µM / inhibition at 2 µM / inhibition at 20 µM / inhibition at 200 µM / inhibition at 2000 µM: read-out: Percent inhibition of binding of radiolabelled SAP to immobilized Neisseria meningitidis
Description: A suspension of heat killed Neisseria meningitidis at 1×10^8 organisms per ml in PBS was dispensed to polystyrene microtitre plates at 50 μl volumes per well, and left overnight at 4° C. All wells were then washed three times with 200 μl volumes of PBS containing 0.05% v/v Tween 20, prior to equilibration for 2 min with 0.01M Tris buffered 0.14M NaCl/0.002M CaCl2 at pH 8.0 (TC buffer), containing 4% w/v BSA and 0.05%/v Tween 20 (TCBT buffer). The wells were then emptied before adding to each one the following reagents. […] For background, non-specific, non calcium dependent, binding in the presence of EDTA: 5 μl radiolabelled SAP in TN and 45 μl 0.01M Tris buffered 0.14M NaCl at pH 8.0 containing 11.1 mM EDTA, 4.4% w/v BSA and 0.06% w/v Tween 20 (TEBT buffer) to provide final concentrations of EDTA, 10 mM; BSA, 4%; Tween 20, 0.05%. […] All wells were then incubated at room temperature for 2 h before being washed three times with 200 μl volumes of TCBT, allowed to dry for 1 h at room temperature, and bound radiolabelled SAP was then counted.
The capacity of the compounds tested to inhibit binding of SAP to meningococci is expressed as the percentage by which SAP binding was reduced compared to binding in the absence of any inhibitor (Table 1).

SAP [2] = molecular target: T1, SAP; assay: Inhibition of binding of 125I radiolabelled SAP to native long chromatin immobilized in microtitre plates; settings: for inhibition at 0.2 µM / inhibition at 2 µM / inhibition at 20 µM / inhibition at 200 µM / inhibition at 2000 µM: read-out: Percent inhibition of binding of radiolabelled SAP to immobilized native long chromatin
SAP [3] = molecular target: T1, SAP; assay: Inhibition of binding of 125I radiolabelled SAP to influenza virus immobilized in microtitre plates; settings: for inhibition at 0.2 µM / inhibition at 2 µM / inhibition at 20 µM / inhibition at 200 µM / inhibition at 2000 µM: read-out: Percent inhibition of binding of radiolabelled SAP to immobilized influenza virus
Description: A concentrated suspension of purified influenza virus A/Shanghai/24/90 at 10 mg protein per ml in PBS was diluted 1:50 in PBS and then dispensed to polystyrene microtitre plates at 50 μl volumes per well, and left overnight at 4° C. All wells were then emptied before blocking by addition to each well of 200 μl of 2% w/v BSA in PBS and incubation at room temperature for 1 h. All wells were then washed three times with 200 μl volumes of PBS containing 0.05% v/v Tween 20, prior to equilibration for 2 min with 0.01M Tris buffered 0.14M NaCl/0.002M CaCl2 at pH 8.0 (TC buffer), containing 4% w/v BSA and 0.05% v/v Tween 20 (TCBT buffer). The wells were then emptied before adding to each one the following reagents. […] For background, non-specific, non calcium dependent, binding in the presence of EDTA: 5 μl radiolabelled SAP in TN and 45 μl 0.01M Tris buffered 0.14M NaCl at pH 8.0 containing 11.1 mM EDTA, 4.4% w/v BSA and 0.06% w/v Tween 20 (TEBT buffer) to provide final concentrations of EDTA, 10 mM; BSA, 4%; Tween 20, 0.05%. […] All wells were then incubated at room temperature for 2 h before being washed three times with 200 μl volumes of TCBT, allowed to dry for 1 h at room temperature, and bound radiolabelled SAP was then counted. The compounds tested in the experiment shown here were the same as those specified in Example B above.
The capacity of the compounds tested to inhibit binding of SAP to the immobilised influenza virus is expressed as the percentage by which SAP binding was reduced compared to binding in the absence of any inhibitor (Table 3).

T1 sequence (P02743 20-223): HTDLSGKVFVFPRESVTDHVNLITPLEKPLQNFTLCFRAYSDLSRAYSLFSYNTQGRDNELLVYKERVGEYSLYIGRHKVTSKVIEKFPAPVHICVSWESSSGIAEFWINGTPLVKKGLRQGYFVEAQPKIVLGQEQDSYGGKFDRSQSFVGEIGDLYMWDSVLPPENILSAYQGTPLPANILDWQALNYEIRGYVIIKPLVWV

| Compound | inhibition at 0.2 µM (SAP [1]; compound 200 nM) [%] | inhibition at 2 µM (SAP [1]; compound 2 μM) [%] | inhibition at 20 µM (SAP [1]; compound 20 μM) [%] | inhibition at 200 µM (SAP [1]; compound 200 μM) [%] | inhibition at 2000 µM (SAP [1]; compound 2 mM) [%] | inhibition at 0.2 µM (SAP [2]; compound 200 nM) [%] | inhibition at 2 µM (SAP [2]; compound 2 μM) [%] | inhibition at 20 µM (SAP [2]; compound 20 μM) [%] | inhibition at 200 µM (SAP [2]; compound 200 μM) [%] | inhibition at 2000 µM (SAP [2]; compound 2 mM) [%] | inhibition at 0.2 µM (SAP [3]; compound 200 nM) [%] | inhibition at 2 µM (SAP [3]; compound 2 μM) [%] | inhibition at 20 µM (SAP [3]; compound 20 μM) [%] | inhibition at 200 µM (SAP [3]; compound 200 μM) [%] | inhibition at 2000 µM (SAP [3]; compound 2 mM) [%] | further results |
| --- | --- | --- | --- | --- | --- | --- | --- | --- | --- | --- | --- | --- | --- | --- | --- | --- |
| O=C(O)CN(CCN(CC(=O)O)CC(=O)O)CC(=O)O [EDTA, reference compound] |  |  |  |  |  |  |  |  |  |  |  |  |  |  |  | Percent inhibition of binding of radiolabelled SAP to immobilized Neisseria meningitidis (SAP [1]; EDTA 10 mM (printed in the 2 mM column)): 100%; Inhibition of binding of SAP to meningococci, in words (SAP [1]; summary of Table 1): All binding was inhibited; Inhibition of binding of SAP to chromatin, in words (SAP [2]; Table 2): All binding was inhibited; Inhibition of binding of SAP to immobilised influenza virus, in words (SAP [3]; summary of Table 3): All binding was inhibited |
| O=C(O)[C@H]1CCCN1C(=O)Cc1ccc(CC(=O)N2CCC[C@@H]2C(=O)O)cc1 [Ro-63-7777, (R)-1-[[4-[2-[(R)-2-Carboxy-pyrrolidin-1-yl]-2-oxo-ethyl]-phenyl]-acetyl]-pyrrolidine-2-carboxylic acid] | 7 | 64 | 73 | 100 | 100 | 4 | 19 | 39 | 66 | 92 | 37 | 65 | 85 | 89 | 89 |  |
| O=C(O)[C@H]1CCCN1C(=O)COc1ccccc1OCC(=O)N1CCC[C@@H]1C(=O)O [Ro-63-8593, (R)-1-[[2-[2-[(R)-2-Carboxy-pyrrolidin-1-yl]-2-oxo-ethoxy]-phenoxyl]-acetyl]-pyrrolidine-2-carboxylic acid] | 18 |  | 87 | 100 | 100 | 7 | 34 | 77 | 89 | 96 | 44 | 68 | 88 | 93 | 94 |  |
| O=C(O)[C@H]1CCCN1C(=O)[C@H]1CC[C@@H](C(=O)N2CCC[C@@H]2C(=O)O)CC1 [Ro-64-2600, (R)-1-[cis-4-[(R)-2-Carboxy-pyrrolidine-1-carbonyl]-cyclohexanecarbonyl]-pyrrolidine-2-carboxylic acid] | 31 | 73 | 93 |  |  | 1 | 35 | 67 | 94 | 100 | 0 | 76 | 83 | 89 | 92 |  |
| O=C(O)[C@H]1CCCN1C(=O)Cc1cccc(CC(=O)N2CCC[C@@H]2C(=O)O)c1 [Ro-64-2668, (R)-1-[[3-[2-[(R)-2-Carboxy-pyrrolidin-1-yl]-2-oxo-ethyl]-phenyl]-acetyl]-pyrrolidine-2-carboxylic acid] | 28 | 64 | 92 | 100 | 100 | 0 | 18 | 56 | 94 | 98 | 25 | 68 | 73 | 77 | 82 |  |
| COc1cccc(OCC(=O)N2CCC[C@@H]2C(=O)O)c1OCC(=O)N1CCC[C@@H]1C(=O)O [Ro-64-2845, (R)-1-[[2-[2-[(R)-2-carboxy-pyrrolidin-1-yl]-2-oxo-ethoxy]-3-methoxy-phenoxy]-acetyl]-pyrrolidine-2-carboxylic acid] | 19 | 74 | 92 | 93 |  | 11 |  | 75 | 96 | 100 | 16 | 52 | 62 | 77 | 89 |  |
| Cc1c(OCC(=O)N2CCC[C@@H]2C(=O)O)cccc1OCC(=O)N1CCC[C@@H]1C(=O)O [Ro-64-2848, (R)-1-[[3-[2-[(R)-1-Carboxy-pyrrolidin-1-yl]-2-oxo-ethoxy]-2-methyl-phenoxy]-acetyl]-pyrrolidine-2-carboxylic acid] |  |  |  |  |  |  |  |  |  |  |  |  |  |  |  | Percent inhibition of binding of radiolabelled SAP to immobilized Neisseria meningitidis (SAP [1]; compound 200 nM): 1%; Percent inhibition of binding of radiolabelled SAP to immobilized Neisseria meningitidis (SAP [1]; compound 2 μM): 64%; Percent inhibition of binding of radiolabelled SAP to immobilized Neisseria meningitidis (SAP [1]; compound 20 μM): 93%; Percent inhibition of binding of radiolabelled SAP to immobilized Neisseria meningitidis (SAP [1]; compound 200 μM): 100%; Percent inhibition of binding of radiolabelled SAP to immobilized Neisseria meningitidis (SAP [1]; compound 2 mM): 100%; Percent inhibition of binding of radiolabelled SAP to immobilized native long chromatin (SAP [2]; compound 200 nM): 0%; Percent inhibition of binding of radiolabelled SAP to immobilized native long chromatin (SAP [2]; compound 2 μM): 22%; Percent inhibition of binding of radiolabelled SAP to immobilized native long chromatin (SAP [2]; compound 20 μM): 65%; Percent inhibition of binding of radiolabelled SAP to immobilized native long chromatin (SAP [2]; compound 200 μM): 95%; Percent inhibition of binding of radiolabelled SAP to immobilized native long chromatin (SAP [2]; compound 2 mM): 98%; Percent inhibition of binding of radiolabelled SAP to immobilized influenza virus (SAP [3]; compound 200 nM): 24%; Percent inhibition of binding of radiolabelled SAP to immobilized influenza virus (SAP [3]; compound 2 μM): 65%; Percent inhibition of binding of radiolabelled SAP to immobilized influenza virus (SAP [3]; compound 20 μM): 81%; Percent inhibition of binding of radiolabelled SAP to immobilized influenza virus (SAP [3]; compound 200 μM): 81%; Percent inhibition of binding of radiolabelled SAP to immobilized influenza virus (SAP [3]; compound 2 mM): 85% |
| O=C(O)[C@H]1CCCN1C(=O)Cc1cc(O)c(CC(=O)N2CCC[C@@H]2C(=O)O)cc1O [Ro-64-4383, (R)-1-[[2,5-Dihydroxy-4-[2-[(R)-2-carboxy-pyrrolidin-1-yl]-2-oxo-ethyl]-phenyl]-acetyl]-pyrrolidine-2-carboxylic acid] | 1 | 76 | 95 | 100 | 100 | 0 | 45 | 78 | 88 | 97 | 24 | 57 | 80 | 89 | 89 |  |
| O=C(O)[C@H]1CCCN1C(=O)COc1cccc2c(OCC(=O)N3CCC[C@@H]3C(=O)O)cccc12 [Ro-64-5445, (R)-1-[[5-[2-[(R)-2-Carboxy-pyrrolidin-1-yl]-2-oxo-ethoxy]-naphthalen-1-yloxy]-acetyl]-pyrrolidine-2-carboxylic acid] | 30 | 72 | 81 | 100 | 100 | 12 | 51 | 74 | 82 | 96 | 23 |  | 64 | 76 | 80 |  |
